“Also recorded” adds a separate entry of the source.
Experiments:
[1] = test system: rats; experiment: Naloxone-precipitated conditioned place aversion in chronic oxycodone treated rats; type: in vivo, rat; details: chronic oxycodone-treated rats, 5, 15 mg/kg, 1 hour prior to naloxone, FIG. 6
From the text: The place-conditioning apparatus (Med Associates, St Albans, VT) consisted of two compartments (21×28 cm^2) linked by a gray connecting area (21×12.5 cm^2); a sliding door separated each compartment from the connecting area. The two end compartments differed in wall color (black vs white), floor type (grid vs net), and illumination; preference for the end compartments was balanced by using weaker illumination in the reflective (and normally less-preferred) white compartment and stronger illumination in the non-reflective black compartment. The paradigm was further ‘balanced’ by associating the training injections with the white side in half the animals and with the black side in the remaining animals.
The CPA procedures in this study were similar to those described by others (Azar et al., 2003; Olmstead and Burns 2005; 2012). Briefly, one day before drug treatments started, rats (200-250 g) were randomly divided into 6 groups and were allowed to explore their assigned conditioning apparatus for 15 min (preconditioning). […] CPA score was calculated as animals' time spent in drug-paired minus saline-paired compartments, Oxycodone HCl and naloxone HCl were purchased from Sigma Chemical Co. (Saint Louis, MO, USA) and were dissolved in physiological saline.

[2] = test system: Long-Evans rats; experiment: Responding during saline substitution (extinction) testing in rats; type: in vivo, rat; details: 5 or 15 mg/kg
From the text: Experiment 2. […] Following the completion of the self-administration testing, rats were allowed to self-administer oxycodone for another 4 daily sessions. […] Fifteen min after injection, they were placed in the chambers and allowed to lever-press for saline infusion for 3 hr.

[3] = test system: squirrel monkeys; experiment: Cue-induced reinstatement of drug seeking in squirrel monkeys; type: in vivo, squirrel monkey (Saimiri sciureus)
From the text: Cue-induced reinstatement: After the completion of priming-induced reinstatement testing, the monkeys were returned to baseline THC self-administration for 5-10 sessions. In subsequent extinction sessions, drug injections and all cues associated with drug injections were removed. This means that catheters were not connected to a pump and monkeys were not receiving infusions or visual cue presentations. After two or three days of extinction, we tested for cue-induced reinstatement of extinguished drug-seeking behavior after vehicle pretreatment (i.m.) by allowing delivery of a saline injection paired with the drug-associated cues. […] Each reinstatement test was a single session, which was preceded and followed by extinction session(s) with vehicle pretreatment (i.m.) 30 min before the sessions.
Δ^9-tetrahydrocannabinol (THC, NIDA Drug Supply Program, Bethesda, MD, USA) was dissolved in a vehicle containing 1% Tween 80, 1% ethanol, and saline to obtain stock solution (0.4 mg/ml) and further diluted with saline. In the reinstatement tests, THC was injected i.v. (1 ml/kg) immediately before the session.

[4] = test system: squirrel monkeys; experiment: THC self-administration in squirrel monkeys (FR10); type: in vivo, squirrel monkey (Saimiri sciureus); details: FR10, 1, 3, and 10 mg/kg i.m.
From the text: Subjects: Seven adult male squirrel monkeys (Saimiri sciureus) weighing 0.8 to 1.1 kg were housed in individual cages in a temperature- and humidity-controlled room with unrestricted access to water. […] The monkeys were trained to self-administer either THC or food pellets prior to the study. Monkeys were fed (approximately two hours after the session) a daily food ration consisting of biscuits of high protein monkey diet (Lab Diet 5045, PMI Nutrition International, Richmond, Indiana). The number of biscuits (8-14) was determined for each monkey individually to maintain their body weights at a constant level throughout the study. […]
Apparatus: Experimental chambers and other apparatus used in this study were the same as previously described (Justinova et al. 2003). […] The chair contained one response lever (Med Associates., USA) mounted on a transparent front wall; each press on the lever with a force greater than 0.2 N produced an audible click and was recorded as a response. […]
Self-administration procedure: Daily one-hour experimental sessions were typically conducted from Monday through Friday with each monkey. […] Before the start of the session, catheters were flushed with 1 ml of saline and one injection was delivered (calculated to fill the dead space of the catheter which was about 0.2 ml). […]

CCc1cc(Cl)c(OC)c(N2CCN(CC(O)CCNC(=O)c3cc4ccccc4[nH]3)CC2)c1 (racemic) [Compound 29, N-(4-(4-(3-chloro-5-ethyl-2-methoxyphenyl)piperazin-1-yl)-3-hydroxybutyl)-1H-indole-2-carboxamide]
naloxone-precipitated conditioned place aversion [1]: inhibits naloxone-precipitated conditioned place aversion; also recorded: significantly attenuated naloxone-precipitated conditioned place aversion
naloxone-precipitated conditioned place aversion ([1]; listed as (±)-29): inhibition of naloxone-precipitated conditioned place aversion
oxycodone seeking during extinction testing [2]: inhibited oxycodone seeking during extinction testing
cue-induced reinstatement of drug seeking behavior [3]: attenuated cue-induced reinstatement of drug seeking behavior
THC self-administration ([4]; FIG. 7): attenuates THC self-administration; also recorded: dose-dependently blocked THC self-administration
THC self-administration ([4]; FIG. 7, listed as (±)-29): attenuation of THC self-administration
